What was measured:
[1] = tested on: r-PQS4 (FEN1 rG4) (RNA, G4) AGGGGCCUGCGGGGACCUGGUGUGGGUGGAGUGGGGAC; test: UV-Vis absorption shift; conditions: 100 mM KCl, 12 mM NaCl; 50 mM Tris-HCl pH 7.4; pre-folded RNA 5 μM; TMPyP4 printed as 100 mM
[2] = tested on: FAM-labeled FEN1 rG4 (RNA, G4) AGGGGCCUGCGGGGACCUGGUGUGGGUGGAGUGGGGAC; test: native PAGE mobility (G4 unfolding); conditions: 100 mM KCl, 12 mM NaCl; 100 mM KCl in gel; 12% gel, 4 °C; RNA 5 μM; TMPyP4 unfolds rG4
[3] = tested on: r-PQS4 (FEN1 rG4) (RNA, G4) AGGGGCCUGCGGGGACCUGGUGUGGGUGGAGUGGGGAC; test: CD titration (loss of 265 nm ellipticity); conditions: 100 mM KCl, 12 mM NaCl; 50 mM Tris-HCl pH 7.4; RNA 5 μM; TMPyP4 added before annealing (legend: pre-folded); disrupts G4

Measured: binding

C[n+]1ccc(-c2c3nc(c(-c4cc[n+](C)cc4)c4ccc([nH]4)c(-c4cc[n+](C)cc4)c4nc(c(-c5cc[n+](C)cc5)c5ccc2[nH]5)C=C4)C=C3)cc1
yes: all assays above

Reference: article PMC9952066 (2023)
